Data taken from US20250089717A1, “FUNGICIDAL HALOMETHYL KETONES, HYDRATES AND ENOL ETHERS AND THEIR MIXTURES” (FMC CORPORATION, priority 2023, published 2025).

These molecules were tested on Phakopsora pachyrhizi (assay: Test A: preventive spray on soybean seedlings, Asian soybean rust, visual disease rating). Conditions: rate 10 ppm.
Type: in vivo
Description: General protocol for preparing test suspensions for Test A: the test compounds were first dissolved in acetone in an amount equal to 3% of the final volume and then suspended at the desired concentration (in ppm) in acetone and purified water (50/50 mix by volume) containing 250 ppm of the surfactant PEG400 (polyhydric alcohol esters). The resulting test suspensions were then used in Test A.
The test solution was sprayed to the point of run-off on soybean seedlings. The following day the seedlings were inoculated with a spore suspension of Phakopsora pachyrhizi (the causal agent of Asian soybean rust) and incubated in a saturated atmosphere at 22° C. for 24 h and then moved to a growth chamber at 22° C. for 8 days, after which time visual disease ratings were made.
A rating of 100 indicates 100% disease control and a rating of 0 indicates no disease control (relative to the controls).

Row | Compound | Test A rating (100 = 100% disease control, 0 = no disease control relative to the controls) [%]
1 | CCO/C(=C\Oc1ccc(Cn2cc(COC(=O)C3CCCC3)nn2)cc1)C(F)(F)F [Compound 12] | 79
2 | CCOC(=O)OCc1cnn(Cc2ccc(OCC3(C(F)(F)F)OCCO3)cc2)c1 [Compound 85] | 86
3 | C#CCC(=O)OCc1cnn(Cc2ccc(O/C=C(\OCC)C(F)(F)F)cc2)c1 [compound 44] | 100
4 | CCO/C(=C\Oc1ccc(Cn2cc(COCC3CC3)cn2)cc1)C(F)(F)F [compound 64] | 100
5 | CCO/C(=C\Oc1ccc(Cn2cccc(C(=O)NOCCOC)c2=O)cc1)C(F)(F)F [compound 103] | 97
6 | C=CCON=C(OCC)c1cnn(CCc2ccc(O/C=C(\OCC)C(F)(F)F)cc2)c1 [compound 61] | 100
7 | CCO/C(=C\Oc1ccc(Cn2cc(C(=O)N(C)OCC3CC3)cn2)cc1)C(F)(F)F [compound 39] | 100
8 | CCO/C(=C\Oc1ccc(Cc2cccc(C(=O)NOCC(F)(F)F)n2)cc1)C(F)(F)F [Compound 127, 2-[[4-1[[(1Z)-2-ethoxy-3,3,3-trifluoro-1-propen-1-yl]oxy]phenyl]methyl]-N-(2,2,2-trifluoroethoxy)-6-pyridinecarboxamide] | 99
9 | CCO/C(=C\Oc1ccc(Cn2cc(COC(=O)C(Cl)Cl)cn2)cc1)C(F)(F)F [compound 16] | 100
10 | CCO/C(=C\Oc1ccc(Cn2cc(C(=O)NOCC3CC3)cn2)cc1)C(F)(F)F [compound 25] | 100
11 | C=CCON(CC)C(=O)c1cnn(Cc2ccc(O/C=C(\OCC)C(F)(F)F)cc2)c1 [compound 41] | 94
12 | CCO/C(=C\Oc1ccc(Cn2cc(COC(=O)COC)cn2)c(F)c1)C(F)(F)F [Compound 75] | 100
13 | C=CCONC(=O)c1cn(Cc2ccc(O/C=C(\OCC)C(F)(F)F)cc2)nn1 [Compound 83] | 99
14 | CCOC(=O)OCc1cnn(Cc2ccc(O/C=C(\OCC)C(F)(F)F)cc2)c1 [compound 53] | 100
15 | CCO/C(=C\Oc1ccc(Cn2cc(COC(=O)C3CC3)cn2)cc1)C(F)(F)F [compound 51] | 100
16 | CCO/C(=C\Oc1ccc(Cn2cc(COC(=O)CC)cn2)c(F)c1F)C(F)(F)F [Compound 70] | 100
17 | CCO/C(=C\Oc1ccc(Cn2cc(C(=O)NOCC#N)cn2)c(F)c1)C(F)(F)F [Compound 81] | 100
18 | CCO/C(=C\Oc1ccc(Cn2cc(COC(=O)CCC(=O)OC)cn2)cc1)C(F)(F)F [compound 26] | 100
19 | CCO/C(=C\Oc1ccc(Cc2ccnc(C(=O)NOCC(F)(F)F)c2)cc1)C(F)(F)F [Compound 133, 4-[[4-1[[(1Z)-2-ethoxy-3,3,3-trifluoro-1-propen-1-yl]oxy]phenyl]methyl]-N-(2,2,2-trifluoroethoxy)-2-pyridinecarboxamide] | 100
20 | CCO/C(=C\Oc1ccc(Cn2cc(CON(C(C)=O)C(C)=O)cn2)cc1)C(F)(F)F [compound 20] | 79
21 | CCO/C(=C\Oc1ccc(Cn2cc(COC(=O)CC(F)(F)F)nn2)cc1)C(F)(F)F [Compound 11] | 0
22 | CCO/C(=C\Oc1ccc(Cn2cc(COC3CCC3)cn2)cc1)C(F)(F)F [compound 59] | 100
23 | C#CCONC(=O)c1cc(Cc2ccc(O/C=C(\OCC)C(F)(F)F)cc2)ccn1 [Compound 131, 4-[[4-1[[(1Z)-2-ethoxy-3,3,3-trifluoro-1-propen-1-yl]oxy]phenyl]methyl]-N-(2-propyn-1-yloxy)-2-pyridinecarboxamide] | 100
24 | CCO/C(=C\Oc1ccc(Cn2cc(COC(C)=O)nn2)cc1)C(F)(F)F [Compound 37] | 100
25 | CCO/C(=C\Oc1ccc(Cn2cc(COCC3CC3)cn2)c(F)c1)C(F)(F)F [Compound 68] | 100
26 | C#CCOCc1cnn(Cc2ccc(O/C=C(\OCC)C(F)(F)F)cc2)c1 [compound 65] | 100
27 | CCO/C(=C\Oc1ccc(Cn2cc(CC(=O)OCC3CC3)cn2)cc1)C(F)(F)F [compound 13] | 96
28 | C=C=CC(=O)NCc1cnn(Cc2ccc(OCC3(C(F)(F)F)OCCO3)cc2)c1 [Compound 84] | 99
29 | CCO/C(=C\Oc1ccc(Cn2cc(C(=O)NOCCO)cn2)cc1)C(F)(F)F [compound 67] | 100
30 | CCO/C(=C\Oc1ccc(Cc2ccnc(C(=O)NOCC3CC3)c2)cc1)C(F)(F)F [Compound 132, 4-[[4-1[[(1Z)-2-ethoxy-3,3,3-trifluoro-1-propen-1-yl]oxy]phenyl]methyl]-N-(cyclopropylmethoxy)-2-pyridinecarboxamide] | 100

Same assay, conditions: rate 10 ppm, read-out: Test A rating (100 = 100% disease control, 0 = no disease control relative to the controls)

Row | Compound | pest or weed control at 10 ppm [%]
31 | C=CCO/N=C(/OCC)c1ccn(Cc2ccc(O/C=C(\OCC)C(F)(F)F)cc2)n1 [compound 110] | 99
32 | C=CCONC(=O)c1cnn(Cc2cccc(O/C=C(\OCC)C(F)(F)F)c2)c1 [compound 114] | 100
33 | CCO/C(=C\Oc1ccc(Cn2cc(COC(=O)COC)cn2)cc1)C(F)(F)F [Compound 23, [1-[[4-[[(1Z)-2-ethoxy-3,3,3-trifluoro-1-propen-1-yl]oxy]phenyl]methyl]-1H-pyrazol-4-yl]methyl 2-methoxyacetate] | 100
34 | CCOC(=O)C(OC(C)=O)c1cnn(Cc2ccc(O/C=C(\OCC)C(F)(F)F)cc2)c1 (stereo not drawn) [Compound 54, ethyl α-(acetyloxy)-1-[[4-[[(1Z)-2-ethoxy-3,3,3-trifluoro-1-propen-1-yl]oxy]phenyl]methyl]-1H-pyrazole-4-acetate] | 100
35 | C=CCO/N=C(/OCC)c1cnn(Cc2cccc(O/C=C(\OCC)C(F)(F)F)c2)c1 [compound 113] | 87
36 | C=CCONC(=O)c1ccn(Cc2ccc(O/C=C(\OCC)C(F)(F)F)cc2)n1 [compound 111] | 100
37 | C=CCON=C(OCC)c1cnn(Cc2ccc(O/C=C(\OCC)C(F)(F)F)cc2)c1 [Compound 40, ethyl 1-[[4-[[(1Z)-2-ethoxy-3,3,3-trifluoro-1-propen-1-yl]oxy]phenyl]methyl]-N-(2-propen-1-yloxy)-1H-pyrazole-4-carboximidate] | 100
38 | CCO/C(=C\Oc1ccc(Cc2cccc(C(=O)NOCC3CC3)n2)cc1)C(F)(F)F [Compound 124, 2-[[4-[[(1Z)-2-ethoxy-3,3,3-trifluoro-1-propen-1-yl]oxy]phenyl]methyl]-N-(cyclopropylmethoxy)-6-pyridinecarboxamide] | 100
39 | CCO/C(=C\Oc1ccc(Cc2cccc(C(=O)N(C)OCC(F)(F)F)n2)cc1)C(F)(F)F [Compound 120, 2-[[4-[[(1Z)-2-ethoxy-3,3,3-trifluoro-1-propen-1-yl]oxy]phenyl]methyl]-N-(2,2,2-trifluoroethoxy)-N-methyl-6-pyridinecarboxamide] | 100
40 | C=CCON(C)C(=O)c1cc(Cc2ccc(O/C=C(\OCC)C(F)(F)F)cc2)ccn1 [compound 135] | 100
41 | CCO/C(=C\Oc1ccc(Cc2cccc(C(=O)N(C)OCC3CC3)n2)cc1)C(F)(F)F [Compound 123, 2-[[4-[[(1Z)-2-ethoxy-3,3,3-trifluoro-1-propen-1-yl]oxy]phenyl]methyl]-N-(cyclopropylmethoxy)-N-methyl-6-pyridinecarboxamide] | 100
42 | CCO/C(=C\Oc1ccc(Cn2cc(COC(C)=O)cn2)cc1)C(F)(F)F [Compound 22, [1-[[4-[[(1Z)-2-ethoxy-3,3,3-trifluoro-1-propen-1-yl]oxy]phenyl]methyl]-1H-pyrazol-4-yl]methyl acetate] | 100
43 | CCO/C(=C\Oc1ccc(Cc2cccc(C(=O)N(C)OCc3ccccc3)n2)cc1)C(F)(F)F [compound 122] | 100
44 | CCO/C(=C\Oc1ccc(Cn2cc(COC(=O)CC)cn2)cc1)C(F)(F)F [Compound 21, [1-[[4-[[(1Z)-2-ethoxy-3,3,3-trifluoro-1-propen-1-yl]oxy]phenyl]methyl]-1H-pyrazol-4-yl]methyl propanoate] | 100

Same assay, conditions: rate 50 ppm

Row | Compound | Test A rating (100 = 100% disease control, 0 = no disease control relative to the controls) [%]
45 | CCO/C(=C\Oc1ccc(Cn2cc(COC(=O)N(C)C)cn2)cc1)C(F)(F)F [compound 8] | 60
46 | COCCC(=O)OCc1cnn(Cc2ccc(OCC3(C(F)(F)F)OCCO3)cc2)c1 [Compound 87] | 100
47 | C#CCOCc1cnn(Cc2ccc(OCC3(C(F)(F)F)OCCO3)cc2)c1 [Compound 94] | 100
48 | C=CCC(=O)OCc1cnn(Cc2ccc(OCC3(C(F)(F)F)OCCO3)cc2)c1 [Compound 89] | 100
49 | COCC(=O)OCc1cnn(Cc2ccc(OCC3(C(F)(F)F)OCCO3)cc2)c1 [Compound 86] | 100
